Key:
DUSP5 PD(WT) = target: T1, DUSP5 PD(WT) (Homo sapiens, UniProt Q16690); test: pNPP phosphatase activity assay with DUSP5 PD(WT); type: biochemical
T1 construct: hexa-histidine (N); made in house; host or cells: E. coli BL21(DE3)
T1 sequence (Q16690 178-319 limits assumed): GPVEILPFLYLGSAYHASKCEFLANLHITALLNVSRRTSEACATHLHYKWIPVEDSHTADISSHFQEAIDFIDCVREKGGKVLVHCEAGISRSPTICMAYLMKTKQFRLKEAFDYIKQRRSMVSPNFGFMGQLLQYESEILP
Excerpt: p-Nitrophenolphosphatase (pNPP) Activity Assay.
To measure enzymatic activity of the DUSP5 PD and the inhibitory capacity of selected molecules, an in vitro phosphatase assay was developed based on previous studies (27). In this assay, DUSP5 PD dephosphorylates the substrate p-nitrophenol phosphate (pNPP, Sigma Aldrich), yielding p-nitrophenolate, which absorbs at 405 nm with an extinction coefficient of 18,000 M-1 cm-1.
Thus, an increase in absorbance at 405 nm corresponds to the turnover of pNPP top-nitrophenolate. The assay was initially optimized in 1 mL quartz cuvettes, then was subsequently optimized for and validated in a 96-well plate format. All IC50 values were obtained using the 96-well plate assay format (see below). The assay buffer contained 100 mM Tris, 100 mM sodium chloride, 5 mM magnesium chloride, and 1 mM dithiothreitol (DTT) at pH 7.5. The pNPP substrate was prepared as a 50 mM stock by dissolving the solid substrate in assay buffer. The DUSP5 PD and pNPP were assayed initially in a cuvette (1 mL total volume) and initial velocities were fitted to the Michaelis-Menten equation (1)
where v is the initial velocity, Vmax is the maximum velocity, Km is the Michaelis constant, and [S] is the concentration of pNPP. Data were fitted using a nonlinear least squares fit to eq. 1, with GraphPad Prism 6 software.
For the 96-well plate validation assay, sodium orthovanadate (Sigma Aldrich) was utilized as a positive control for inhibition (Swarup et al., Biochem Biophys Res Commun. 1982; 107:1104-9.) at a final concentration of 10 μM, to completely block activity. All plate assays were performed in standard 96-well clear bottom plates (Thermo Scientific Nunc) with a total assay volume of 200 μL, using a SpectraMax M5 Microplate Reader (Molecular Devices). The plate validation assay was performed with replicate columns of positive control wells, negative control wells and blank wells. Blank columns contained only buffer and pNPP. Negative control (uninhibited) contained buffer, pNPP, and DUSP5 PD; and, positive control contained the same components, but also contained 10 μM sodium orthovanadate. The plate was then shaken and allowed to equilibrate in the spectrophotometer at 25° C. for 30 min. After incubation, 4 μL of a […] was dispensed into appropriate wells utilizing a single-channel pipette. This produced a final enzyme concentration of 1 μM. Before a read was taken, the plate was shaken for five seconds. The initial rate for the DUSP5 PD reaction was linear for approximately 90 min; and, the plate was kept in the spectrophotometer at 25° C. for an additional 80 min after the kinetic read. The endpoint reading was subsequently taken at 90 min after initiation of reaction. Slopes from the kinetic read, as well as single-point absorbance values at the 90-minute endpoint read, were then averaged. For blank wells and positive control wells, both slope values (continuous assay) and single point absorbance values (fixed time assay) were approximately zero, as expected. Standard deviations were calculated and a Z′ value (Zhang et al., J Biomol Screening. 1999; 4:67-73) subsequently determined using the following equation: […]
IC50 values were obtained using the assay described above, in 96 well plates. The maximum inhibitor concentration screened in any plate was […] and the minimum was 1.5 μM. The IC50 plate was designed so that the first column of wells served as blanks, with wells containing only buffer and substrate. The second column of wells functioned as the plate negative control, with each well containing buffer, substrate and enzyme. The remaining wells in the plate contained buffer, substrate, enzyme, and varying amounts of inhibitor, with inhibitor concentration increasing from left to right across the plate. Data points were collected in triplicate, and inhibitor concentrations were chosen to provide data equally spread on a logarithmic scale. […]

DUSP5 PD(C263S) = target: T2, DUSP5 PD(C263S) (Homo sapiens, UniProt Q16690, C263S); test: NMR binding assay, 2D 1H-15N HSQC titration; details: pH 6.8; 250 μM RR505 or 500 μM CSD3-2320
T2 construct: hexa-histidine (N); made in house; host or cells: E. coli BL21(DE3), M9 minimal media with 15NH4Cl
Method: NMR samples of DUSP5 PD(C263 S) were prepared for 2D 1H-15N HSQC (heteronuclear single quantum coherence) spectral titration studies. The 15N-labeled DUSP5 PD(C263) protein was concentrated using an Amicon Ultra-4 centrifugal device (Millipore) to 600 μM.
NMR samples were prepared with the following conditions for RR505: ±250 μM RR505, 250 μM DUSP5 PD (C263S), 10% D20, 50 mM potassium phosphate, 100 mM KCl, and 2 mM DTT at pH 6.8.
NMR samples were prepared with the following conditions for CSD3-2320: ±500 μM CSD3-2320, 500 μM DUSP5 PD (C263S), 10% D20, 50 mM potassium phosphate, 100 mM KCl, and 2 mM DTT at pH 6.8. NMR experiments were performed on a 500 MHz Varian NMR System using a triple resonance probe with z-axis gradients at 25° C.

T2 sequence (Q16690 178-319 C263S limits assumed): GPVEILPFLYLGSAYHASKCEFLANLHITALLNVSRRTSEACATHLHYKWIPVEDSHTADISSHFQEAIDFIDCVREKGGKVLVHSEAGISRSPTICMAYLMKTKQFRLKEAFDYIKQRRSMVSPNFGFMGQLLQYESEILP

| IC50 (DUSP5 PD(WT); pNPP assay with DUSP5 PD) | IC50 (DUSP5 PD(WT); phosphatase domain alone, pNPP) | Structure (SMILES) | IC50's, range in words (DUSP5 PD(WT); enzyme inhibition (FIG. 3)) | binding by HSQC crosspeak changes (DUSP5 PD(C263S)) |
| --- | --- | --- | --- | --- |
| – | – | O=S(=O)([O-])c1ccc2[nH]c3c(S(=O)(=O)[O-])cc(S(=O)(=O)[O-])cc3c2c1.[Na+].[Na+].[Na+] [RR505, Carbazole-1,3,6-trisulfonic acid, Trisodium Salt] | mM range | direct binding |
| 0.484 mM | 33 mM | O=S(=O)(O)c1cc(O)c2c(S(=O)(=O)O)cccc2c1 [RR527] | – | direct binding |

From patent publication US20180000778A1, “SMALL MOLECULE ANTAGONISTS OF DUSP5 AND METHODS OF USE” (THE MEDICAL COLLEGE OF WISCONSIN, INC., priority 2015, published 2018)
